From patent US20240417395A1, “DUAL ANTAGONIST AND USE THEREOF” (NICOYA THERAPEUTICS (SHANGHAI) CO., LTD, priority 2021, published 2024) come the findings set out here.

Each structure is given as a SMILES string. Read-outs that look alike come from different tables or passages of the source. Bounds are passed on as bounds.

For data set [1], the target named is CYP2D6 (Homo sapiens (Human), UniProt P10635). As to the kind of experiment: Inhibition of cytochrome P450 isozyme CYP2D6. The format is in vitro ADME. The settings on record: for IC50: recombinant enzyme. The protocol:
A total of six specific probe substrates of six isozymes of CYPs, i.e., α-Naphthoflavone (CYP1A2), Sulphaphenazole (CYP2C9), Ticlopidine (CYP2C19), Quinidine (CYP2D6), Ketoconazole (CYP3A4), and Montelukast (CYP2C8) were co-incubated with recombinant hepatic drug enzymes CYP1A2, CYP2C9, CYP2C19, CYP2D6, CYP3A4, and CYP2C8 and test compounds, respectively. Nicotinamide adenine dinucleotide phosphate (NADP+), D-glucose-6-phosphate (G6P) and glucose-6-phosphate dehydrogenase (G6DHP) were added to start the reaction. At the end of the reaction, the corresponding half maximal inhibitory concentrations (IC50) were calculated by the fluorescence detection method (Ex490 nm/Em520 nm).

Data set [2] deals with AT1 (Homo sapiens (Human), UniProt P30556). As to the kind of experiment: Calcium flux assay on AT1 cell line. The format is cell-based. The settings on record: AT1/HEK293, calcium flux, angiotensin II agonist. The procedure:
Test materials: a) cell line: AT1/HEK293; b) vehicles: F12, Invitrogen (Cat #11765-047); FBS, Corning (Cat #35-076-CV); Geneticin, Invitrogen (Cat #10131); c) reagent: Fluo-4 Direct, (Invitrogen, Cat #F10471); d) instruments: 384 well Poly-D-Lysine protein coating plate, Greiner #781946; Vi-cell XR Cell Viability Analyzer, Beckman Coulter; Incubator, Thermo.
For the agonist (angiotensin II) master plate, the agonist solution was diluted from 1 mM to 200 μM with the test buffer solution. […] Afterwards, 900 nL of each compound solution was transferred to the master plate and 30 μL of the test buffer solution was added. • a) The cell plate was removed from the incubator, and 20 μL of 2X Fluo-4 Direct was added by a pipette to a 384-well cell plate. • b) The cell plate was incubated at 37° C. for 50 min in the environment of 5% CO2, and then incubated at room temperature for 10 min. • c) The cell plate was removed from the incubator and placed in FLIPR. The compound plates and the tip box were placed in FLIPR. • d) Regarding the EC80 plate: • 1) Operations were conducted on […]. • 2) 10 μL of compound solution was transferred from the EC80 master plate to the cell plate. • 3) Fluorescence signals were read. • 4) The read signals were counted, and the EC80 value of each cell line was calculated using FLIPR. • 5) For the concentration of the compound plate, a solution having a concentration 6 times that of the reference agonist EC80 was formulated. • e) Regarding the compound plate: • 1) Operations were conducted on […]. • 2) 10 μL of compound was transferred to the cell plate. • 3) Fluorescence signals were read. • 4) 10 μL of solution having a concentration 6 times that of the reference agonist EC80 was transferred. • 5) Fluorescence signals were read. • f) Data analysis by Prism

Where [3] appears, read: read-out: IC50 activity against AT1 (class).
[4] abbreviates: fluorescence detection, read-out: IC50 CYP2D6.

Chain of AT1 (P30556 whole entry): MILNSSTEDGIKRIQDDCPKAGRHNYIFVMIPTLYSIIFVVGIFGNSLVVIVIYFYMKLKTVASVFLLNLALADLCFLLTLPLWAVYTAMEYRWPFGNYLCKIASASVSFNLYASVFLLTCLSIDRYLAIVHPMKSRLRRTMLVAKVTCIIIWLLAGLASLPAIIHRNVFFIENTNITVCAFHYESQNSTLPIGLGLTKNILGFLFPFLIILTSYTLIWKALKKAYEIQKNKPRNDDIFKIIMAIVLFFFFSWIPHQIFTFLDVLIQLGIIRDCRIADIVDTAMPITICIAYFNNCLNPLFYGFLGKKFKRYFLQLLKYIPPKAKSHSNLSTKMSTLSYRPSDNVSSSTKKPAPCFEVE
Chain of CYP2D6 (P10635 whole entry): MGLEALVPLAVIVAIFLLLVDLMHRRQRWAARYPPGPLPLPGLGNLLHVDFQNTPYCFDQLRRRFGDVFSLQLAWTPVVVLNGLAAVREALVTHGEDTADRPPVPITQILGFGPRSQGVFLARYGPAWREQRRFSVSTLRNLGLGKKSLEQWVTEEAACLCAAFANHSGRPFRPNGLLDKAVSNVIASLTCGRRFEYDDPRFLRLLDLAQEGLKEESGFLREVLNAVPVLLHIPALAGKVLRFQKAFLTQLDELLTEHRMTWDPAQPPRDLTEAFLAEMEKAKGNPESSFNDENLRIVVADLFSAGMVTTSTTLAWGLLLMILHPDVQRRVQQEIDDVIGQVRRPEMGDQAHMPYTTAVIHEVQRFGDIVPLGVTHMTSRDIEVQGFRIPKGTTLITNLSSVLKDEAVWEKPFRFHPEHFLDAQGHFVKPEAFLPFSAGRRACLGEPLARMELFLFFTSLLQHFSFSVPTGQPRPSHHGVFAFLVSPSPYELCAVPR

Consider `CCCCC1=N[C@@]2(CC3C[C@H]3C2)C(=O)N1Cc1ccc(-c2ccccc2S(=O)(=O)Nc2noc(C)c2C)c(COCC)c1` (some centres unmarked) [Example 3], for which, in data set [1], the “risk of inhibiting CYP2D6 activity (conclusion in words)” value (from here on “risk of inhibiting CYP2D6 activity”) was “no risk of inhibiting”. The IC50 in data set [1] is greater than 10000 nM; in data set [2] (setting [3]) it was 1 to 10 nM; in data set [2] (read-out: IC50 against AT1), 1.97 nM.

For `CCCCC1=N[C@@]2(CC3C[C@H]3C2)C(=O)N1Cc1ccc(-c2ccccc2S(=O)(=O)Nc2noc(C)c2Cl)c(COCC)c1` (some centres unmarked) [Example 7], in data set [1] (conclusion to Table 4), the “risk of inhibiting CYP2D6 activity” value is listed as “no risk of inhibiting”. Moreover, the figures for the IC50 in data set [1] (setting [4]), in data set [2] (setting [3]) and in data set [2] (read-out: IC50 against AT1) were greater than 10000 nM, 1 to 10 nM and 3.55 nM, respectively.

For `CCCCC1=NC2(CCCC2)C(=O)N1Cc1ccc(-c2ccccc2S(=O)(=O)Nc2noc(C)c2C)c(COCC)c1` [Sparsentan, reference compound], the “risk of inhibiting CYP2D6 activity” value in data set [1] (conclusion to Table 4) is on record as “no risk of inhibiting”. Moreover, the IC50 is greater than 10000 nM in data set [1] (setting [4]) and 9.79 nM in data set [2] (read-out: IC50 against AT1).
